According to ChEMBL document CHEMBL4800727 (2021):

Assays:
Conditions in all cases: Compound concentration 10.0 uM
[1] = biological target: 5-hydroxytryptamine receptor 2A (Homo sapiens) (UniProt P28223)
[2] = biological target: 5-hydroxytryptamine receptor 2B (Homo sapiens, UniProt P41595)
[3] = biological target: T1, 5-hydroxytryptamine receptor 2C (Homo sapiens) (UniProt P28335)
T1 sequence (whole entry): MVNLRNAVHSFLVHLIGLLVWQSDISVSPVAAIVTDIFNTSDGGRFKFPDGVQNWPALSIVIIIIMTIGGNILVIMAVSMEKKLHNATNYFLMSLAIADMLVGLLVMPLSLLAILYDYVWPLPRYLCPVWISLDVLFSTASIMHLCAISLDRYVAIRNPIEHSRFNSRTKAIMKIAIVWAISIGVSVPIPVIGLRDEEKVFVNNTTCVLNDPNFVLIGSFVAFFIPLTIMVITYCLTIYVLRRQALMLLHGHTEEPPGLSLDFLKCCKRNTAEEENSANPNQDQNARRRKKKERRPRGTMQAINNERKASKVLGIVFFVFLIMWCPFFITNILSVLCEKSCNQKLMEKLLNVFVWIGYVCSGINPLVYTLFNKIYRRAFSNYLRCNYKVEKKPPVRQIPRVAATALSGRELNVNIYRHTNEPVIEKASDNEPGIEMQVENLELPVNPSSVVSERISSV

[4] = biological target: 5-hydroxytryptamine receptor 5A (Homo sapiens) (UniProt P47898)
[5] = biological target: 5-hydroxytryptamine receptor 6 (Homo sapiens) (UniProt P50406)
[6] = biological target: D(1A) dopamine receptor (Homo sapiens) (UniProt P21728)
[7] = biological target: D(3) dopamine receptor (Homo sapiens) (UniProt P35462)
[8] = biological target: D(4) dopamine receptor (Homo sapiens) (UniProt P21917)
[9] = biological target: Sodium-dependent dopamine transporter (Homo sapiens, UniProt Q01959)
[10] = biological target: Mu-type opioid receptor (Homo sapiens) (UniProt P35372)
[11] = biological target: Kappa-type opioid receptor (Homo sapiens) (UniProt P41145)
[12] = biological target: GABA-A receptor; anion channel (Rattus norvegicus) (UniProt O09028+P15431+P18506+P18508+P19969+P20236+P23574+P23576+P28471+P28473+P30191+P62813+P63079+P63138+Q91ZM7+Q9ES14)
[13] = biological target: Histamine H1 receptor (Homo sapiens) (UniProt P35367)
[14] = biological target: Histamine H3 receptor (Homo sapiens) (UniProt Q9Y5N1)
[15] = biological target: Alpha-2C adrenergic receptor (Homo sapiens) (UniProt P18825)
[16] = biological target: Beta-1 adrenergic receptor (Homo sapiens) (UniProt P08588)
[17] = biological target: T2, Muscarinic acetylcholine receptor M2 (Homo sapiens) (UniProt P08172)
T2 sequence (whole entry): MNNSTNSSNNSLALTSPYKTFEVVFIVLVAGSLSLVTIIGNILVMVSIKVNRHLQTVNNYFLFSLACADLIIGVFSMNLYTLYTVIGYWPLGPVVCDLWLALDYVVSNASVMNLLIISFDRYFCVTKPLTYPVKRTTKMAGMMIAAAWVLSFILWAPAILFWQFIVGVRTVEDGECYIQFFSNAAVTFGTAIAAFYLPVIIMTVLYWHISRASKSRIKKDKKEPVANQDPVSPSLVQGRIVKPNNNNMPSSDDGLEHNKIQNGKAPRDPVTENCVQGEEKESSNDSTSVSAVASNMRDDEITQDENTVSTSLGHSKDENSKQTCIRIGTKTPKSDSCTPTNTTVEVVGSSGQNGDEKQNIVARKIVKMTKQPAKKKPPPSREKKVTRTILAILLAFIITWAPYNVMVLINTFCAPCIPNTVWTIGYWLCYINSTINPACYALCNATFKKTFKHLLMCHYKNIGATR

[18] = biological target: T3, Muscarinic acetylcholine receptor M4 (Homo sapiens) (UniProt P08173)
T3 sequence (whole entry): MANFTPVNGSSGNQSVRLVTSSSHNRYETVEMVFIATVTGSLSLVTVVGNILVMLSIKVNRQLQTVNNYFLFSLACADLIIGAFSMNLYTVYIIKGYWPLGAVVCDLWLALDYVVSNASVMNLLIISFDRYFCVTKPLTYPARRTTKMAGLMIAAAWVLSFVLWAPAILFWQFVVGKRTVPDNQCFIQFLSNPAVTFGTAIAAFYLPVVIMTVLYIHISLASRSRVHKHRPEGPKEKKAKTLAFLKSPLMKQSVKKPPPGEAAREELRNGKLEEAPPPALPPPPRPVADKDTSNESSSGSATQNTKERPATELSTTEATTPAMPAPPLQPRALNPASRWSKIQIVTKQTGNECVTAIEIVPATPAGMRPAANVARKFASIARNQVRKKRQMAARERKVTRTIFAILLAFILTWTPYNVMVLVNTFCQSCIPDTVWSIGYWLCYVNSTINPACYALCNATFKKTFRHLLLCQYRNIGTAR

[19] = biological target: Alpha-1D adrenergic receptor (Homo sapiens) (UniProt P25100)
[20] = biological target: Sigma intracellular receptor 2 (Homo sapiens) (UniProt Q5BJF2)
[21] = biological target: Sigma non-opioid intracellular receptor 1 (Homo sapiens) (UniProt Q99720)
Chain of Sigma non-opioid intracellular receptor 1 (Homo sapiens) (Q99720 whole entry): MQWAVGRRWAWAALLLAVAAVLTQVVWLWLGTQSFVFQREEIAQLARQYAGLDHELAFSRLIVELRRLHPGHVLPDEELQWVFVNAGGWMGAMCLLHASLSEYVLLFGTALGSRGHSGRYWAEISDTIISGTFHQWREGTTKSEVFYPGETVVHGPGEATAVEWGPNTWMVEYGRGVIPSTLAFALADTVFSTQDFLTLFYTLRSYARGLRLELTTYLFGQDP

Chain of Beta-1 adrenergic receptor (Homo sapiens) (P08588 whole entry, looked up): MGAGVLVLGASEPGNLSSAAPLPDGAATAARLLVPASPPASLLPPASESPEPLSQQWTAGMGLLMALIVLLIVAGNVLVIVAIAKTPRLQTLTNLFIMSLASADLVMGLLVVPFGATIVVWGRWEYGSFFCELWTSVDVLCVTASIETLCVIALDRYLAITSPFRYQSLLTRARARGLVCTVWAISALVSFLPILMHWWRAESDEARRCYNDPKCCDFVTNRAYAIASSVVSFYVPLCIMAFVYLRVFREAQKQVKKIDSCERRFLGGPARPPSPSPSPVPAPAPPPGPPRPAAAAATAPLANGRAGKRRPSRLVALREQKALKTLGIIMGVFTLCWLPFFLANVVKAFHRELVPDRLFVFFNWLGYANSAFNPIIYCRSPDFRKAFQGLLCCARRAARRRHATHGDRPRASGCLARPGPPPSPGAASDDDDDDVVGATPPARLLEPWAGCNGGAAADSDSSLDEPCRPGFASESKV
Chain of Histamine H1 receptor (Homo sapiens) (P35367 whole entry): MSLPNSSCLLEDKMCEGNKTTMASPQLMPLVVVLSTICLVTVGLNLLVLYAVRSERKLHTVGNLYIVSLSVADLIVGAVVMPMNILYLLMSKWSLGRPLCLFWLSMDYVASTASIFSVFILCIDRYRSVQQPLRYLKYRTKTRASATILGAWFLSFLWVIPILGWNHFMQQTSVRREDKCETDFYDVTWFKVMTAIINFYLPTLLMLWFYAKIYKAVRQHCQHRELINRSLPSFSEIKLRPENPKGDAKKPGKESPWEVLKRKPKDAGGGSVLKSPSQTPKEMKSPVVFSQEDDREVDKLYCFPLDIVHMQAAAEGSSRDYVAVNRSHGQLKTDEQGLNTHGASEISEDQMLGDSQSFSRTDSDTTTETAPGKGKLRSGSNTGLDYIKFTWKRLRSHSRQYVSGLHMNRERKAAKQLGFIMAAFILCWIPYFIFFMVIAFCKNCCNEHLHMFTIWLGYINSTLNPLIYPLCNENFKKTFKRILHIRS
Chain of D(4) dopamine receptor (Homo sapiens) (P21917 whole entry): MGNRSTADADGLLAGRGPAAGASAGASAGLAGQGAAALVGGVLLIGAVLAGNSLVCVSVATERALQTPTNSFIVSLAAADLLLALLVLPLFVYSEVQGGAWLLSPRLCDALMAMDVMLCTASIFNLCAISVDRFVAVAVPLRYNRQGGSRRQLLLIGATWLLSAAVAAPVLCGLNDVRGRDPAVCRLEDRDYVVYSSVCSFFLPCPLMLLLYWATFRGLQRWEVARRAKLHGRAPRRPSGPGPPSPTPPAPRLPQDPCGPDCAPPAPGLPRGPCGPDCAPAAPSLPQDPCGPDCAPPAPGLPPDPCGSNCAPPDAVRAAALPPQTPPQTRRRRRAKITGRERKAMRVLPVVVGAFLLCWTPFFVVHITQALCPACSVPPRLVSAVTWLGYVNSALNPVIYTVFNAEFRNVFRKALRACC
Chain of 5-hydroxytryptamine receptor 2B (P41595 whole entry): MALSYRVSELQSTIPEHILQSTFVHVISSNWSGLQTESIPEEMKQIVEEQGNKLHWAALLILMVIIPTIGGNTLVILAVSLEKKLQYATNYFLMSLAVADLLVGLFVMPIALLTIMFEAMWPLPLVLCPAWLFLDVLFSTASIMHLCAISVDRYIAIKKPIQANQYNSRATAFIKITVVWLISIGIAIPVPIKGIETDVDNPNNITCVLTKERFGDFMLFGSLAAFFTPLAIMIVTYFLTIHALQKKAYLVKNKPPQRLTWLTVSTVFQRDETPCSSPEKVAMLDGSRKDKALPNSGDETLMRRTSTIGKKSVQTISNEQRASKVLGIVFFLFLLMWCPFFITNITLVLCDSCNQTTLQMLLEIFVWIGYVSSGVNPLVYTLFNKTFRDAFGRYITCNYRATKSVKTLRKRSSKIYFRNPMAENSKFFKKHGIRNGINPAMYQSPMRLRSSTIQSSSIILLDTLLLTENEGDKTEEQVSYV
Chain of Kappa-type opioid receptor (Homo sapiens) (P41145 whole entry): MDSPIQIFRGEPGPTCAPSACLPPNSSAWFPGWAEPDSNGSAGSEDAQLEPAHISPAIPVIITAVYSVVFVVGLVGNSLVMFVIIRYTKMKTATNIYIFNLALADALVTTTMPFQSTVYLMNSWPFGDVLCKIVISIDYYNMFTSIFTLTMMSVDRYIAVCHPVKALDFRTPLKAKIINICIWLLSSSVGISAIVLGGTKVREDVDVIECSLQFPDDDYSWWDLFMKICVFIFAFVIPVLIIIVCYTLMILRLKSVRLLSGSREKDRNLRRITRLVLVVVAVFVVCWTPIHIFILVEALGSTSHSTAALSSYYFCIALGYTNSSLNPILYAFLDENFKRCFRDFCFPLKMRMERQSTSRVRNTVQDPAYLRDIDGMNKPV
Chain of Sodium-dependent dopamine transporter (Q01959 whole entry): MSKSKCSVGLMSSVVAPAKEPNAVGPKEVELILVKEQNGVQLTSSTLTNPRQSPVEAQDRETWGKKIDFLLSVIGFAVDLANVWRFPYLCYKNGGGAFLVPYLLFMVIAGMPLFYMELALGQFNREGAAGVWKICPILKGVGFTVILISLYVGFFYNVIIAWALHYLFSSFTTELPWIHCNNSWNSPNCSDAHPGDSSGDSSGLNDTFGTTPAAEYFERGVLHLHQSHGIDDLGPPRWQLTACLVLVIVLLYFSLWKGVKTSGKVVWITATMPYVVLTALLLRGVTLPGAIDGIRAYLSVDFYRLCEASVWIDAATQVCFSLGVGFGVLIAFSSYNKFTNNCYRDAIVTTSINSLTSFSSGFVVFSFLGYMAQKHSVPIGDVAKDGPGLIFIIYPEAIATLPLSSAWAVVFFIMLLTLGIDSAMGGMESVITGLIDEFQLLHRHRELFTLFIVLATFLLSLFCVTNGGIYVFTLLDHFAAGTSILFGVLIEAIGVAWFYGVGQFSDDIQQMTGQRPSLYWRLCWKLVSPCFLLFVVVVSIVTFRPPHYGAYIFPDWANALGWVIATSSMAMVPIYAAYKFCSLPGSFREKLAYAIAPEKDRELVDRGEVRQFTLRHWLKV
Chain of Alpha-1D adrenergic receptor (Homo sapiens) (P25100 whole entry): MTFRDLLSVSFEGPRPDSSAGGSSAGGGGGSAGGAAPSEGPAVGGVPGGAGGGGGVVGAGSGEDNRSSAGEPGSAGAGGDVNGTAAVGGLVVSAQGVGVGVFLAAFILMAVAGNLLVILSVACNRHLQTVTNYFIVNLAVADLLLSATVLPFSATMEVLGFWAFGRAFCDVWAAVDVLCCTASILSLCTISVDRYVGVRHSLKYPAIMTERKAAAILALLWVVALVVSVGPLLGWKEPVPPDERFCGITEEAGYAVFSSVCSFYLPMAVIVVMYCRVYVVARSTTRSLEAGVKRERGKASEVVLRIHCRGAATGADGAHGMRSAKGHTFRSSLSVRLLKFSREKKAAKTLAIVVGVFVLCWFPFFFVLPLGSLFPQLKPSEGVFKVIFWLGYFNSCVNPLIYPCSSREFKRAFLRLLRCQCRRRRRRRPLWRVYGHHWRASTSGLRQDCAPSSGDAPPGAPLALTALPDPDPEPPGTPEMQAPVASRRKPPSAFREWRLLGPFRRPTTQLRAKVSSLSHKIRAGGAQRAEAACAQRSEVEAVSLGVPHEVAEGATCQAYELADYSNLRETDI
Chain of Histamine H3 receptor (Homo sapiens) (Q9Y5N1 whole entry): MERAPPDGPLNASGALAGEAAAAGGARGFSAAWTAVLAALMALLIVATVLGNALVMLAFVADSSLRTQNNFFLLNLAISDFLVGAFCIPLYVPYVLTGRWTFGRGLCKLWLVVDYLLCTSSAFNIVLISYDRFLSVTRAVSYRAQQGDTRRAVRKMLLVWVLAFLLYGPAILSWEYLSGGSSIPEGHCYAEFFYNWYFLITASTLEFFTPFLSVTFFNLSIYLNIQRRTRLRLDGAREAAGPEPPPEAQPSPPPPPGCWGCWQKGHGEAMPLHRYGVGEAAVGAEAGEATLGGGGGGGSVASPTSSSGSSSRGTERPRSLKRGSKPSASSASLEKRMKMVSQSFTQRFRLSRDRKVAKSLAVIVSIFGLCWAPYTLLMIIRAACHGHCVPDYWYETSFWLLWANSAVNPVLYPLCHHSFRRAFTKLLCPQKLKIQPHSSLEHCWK
Chain of 5-hydroxytryptamine receptor 5A (Homo sapiens) (P47898 whole entry): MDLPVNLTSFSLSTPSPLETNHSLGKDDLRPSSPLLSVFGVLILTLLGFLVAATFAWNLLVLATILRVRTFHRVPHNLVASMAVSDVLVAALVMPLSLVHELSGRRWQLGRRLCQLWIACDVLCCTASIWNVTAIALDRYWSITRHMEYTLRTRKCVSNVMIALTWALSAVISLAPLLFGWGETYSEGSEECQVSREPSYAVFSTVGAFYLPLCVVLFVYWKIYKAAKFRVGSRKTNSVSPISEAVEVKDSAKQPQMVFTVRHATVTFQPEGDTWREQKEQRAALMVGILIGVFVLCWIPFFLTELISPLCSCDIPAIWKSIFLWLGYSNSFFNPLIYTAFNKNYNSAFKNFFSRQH
Chain of Alpha-2C adrenergic receptor (Homo sapiens) (P18825 whole entry): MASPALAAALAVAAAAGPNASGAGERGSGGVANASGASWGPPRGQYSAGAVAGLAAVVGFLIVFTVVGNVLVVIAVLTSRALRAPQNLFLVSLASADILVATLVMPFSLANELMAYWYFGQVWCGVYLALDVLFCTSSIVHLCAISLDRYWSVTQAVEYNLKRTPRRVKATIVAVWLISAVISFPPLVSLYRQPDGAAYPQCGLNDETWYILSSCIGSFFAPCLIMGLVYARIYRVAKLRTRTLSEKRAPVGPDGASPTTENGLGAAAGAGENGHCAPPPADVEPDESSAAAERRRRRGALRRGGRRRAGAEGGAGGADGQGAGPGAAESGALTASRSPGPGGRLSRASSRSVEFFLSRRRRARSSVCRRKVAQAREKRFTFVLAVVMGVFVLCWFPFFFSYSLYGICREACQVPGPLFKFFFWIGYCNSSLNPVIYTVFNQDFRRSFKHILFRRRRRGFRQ

Row | Structure (SMILES) | inhibition [1] | inhibition [2] | inhibition [3] | inhibition [4] | inhibition [5] | inhibition [6] | inhibition [7] | inhibition [8] | inhibition [9] | inhibition [10] | inhibition [11] | inhibition [12] | inhibition [13] | inhibition [14] | inhibition [15] | inhibition [16] | inhibition [17] | inhibition [18] | inhibition [19] | inhibition [20] | also measured
1 | c1ccc(C2CCN(c3cnc4c(N5CCOCC5)nccn34)CC2)cc1 | 13.1% | 17.7% | 5.92% | 19% | -7.87% | 10.6% | -6.13% | 0.44% | 85.9% | 19.6% | 6.44% | 59.8% | 11.2% | 7.29% | 16.5% | 23.5% | 9.44% | -5.45% | 10.7% | 31.6% | inhibition [21]: 44%
2 | COCCc1ccc(-c2c(C)nc3c(N4CCOCC4)ccnn23)cn1 [JNJ-42396302] | 45.9% | 52.2% | 68.2% | 3.93% | 18.5% | 2.41% | 24.1% | -3.39% | 9.55% | -1.51% | 14.5% | 0.32% | 24.6% | 3.7% | 41.3% | 3.43% | 10.4% | 5.21% | 15.3% | 3.07% | inhibition [21]: -2.53%
